Source: patent US5043166A, “Liposome/anthraquinone drug composition and method” (priority 1989, dated 1991)
Read-outs that look alike come from different tables or passages of the source.

Columns and labels:
[1] = fluorescence of DXR-Fe(III) complex with SUVs (drug modification); type: physicochemical; conditions: in presence of SUVs with saturated and/or unsaturated phospholipids
Description: The studies examined the binding of DXR to ferric iron, both in the presence and absence of small unilamellar vesicles (SUVs) formed from the saturated phospholipid dimyristylphosphatidylcholine (DMPC).
One measure of this modification is a change in the 590/560 nm ratio of the fluorescence spectra, which would result from modification of the antracene ring.

[2] = single injection survival with graded doses of F-DXR and L-DXR; design: species or system mice; conditions: mouse, in vivo, iv, 90 days
Method: L-DXR was prepared as in Example I, to final DXR concentrations of 1, 1.5, 2, and 2.5 mg/ml, with corresponding phospholipid concentrations of 16, 24, 32, and 40 μmole/ml, respectively, and cholesterol concentrations of 6.4, 9.6, 12.8, and 16 μmole/ml, respectively. Free DXR (F-DXR) was prepared in sterile, pyrogen-free physiologic saline solution to final concentrations of 1, 1.5, 2, and 2.5 mg/ml.
BALB/c male mice were treated intravenously with 4 different doses of F-DXR and L-DXR: 10, 15, 20, and 25 mg/kg, by administering about 1% total animal weight of the corresponding F-DXR or L-DXR formulation. […] No mortality was registered among animals treated with 15 and 10 mg/kg of L-DXR and 60% of the mice injected with 20 mg/kg survived throughout 90 days. F-DXR caused 100% of mortality in the groups injected with 25, 20, and 15 mg/kg and 20% mortality in the group receiving 10 mg/kg.

[3] = repeated administration of graded doses of F-DXR and L-DXR; type: in vivo, mice; conditions: mouse, in vivo, iv, 10 mg/kg, read-out: % Surviving; for survival at 1008 h: day 42, 10 mg/kg
Method: (§1) L-DXR was prepared as in Example I, to final DXR concentrations of 0.5, 0.75, and 1.0 mg/ml, corresponding to phospholipid concentrations of 8, 12, and 16 μmole/ml, respectively, and cholesterol concentrations of 3.2, 4.8, and 6.4 μmole/ml, respectively. Free DXR (F-DXR) was prepared in sterile, pyrogen-free physiologic saline solution to final concentrations of 0.5, 0.75, and 1 mg/ml.
(§2) Sabra mice were divided into groups of 15 mice. Three different doses of either F-DXR or L-DXR were tested: 5, 7.5, and 10 mg/kg body weight. Each dose level was tested on 15 male and 15 female mice. Treatment was administered as a bolus injection through the tail vein on days 0, 14, 28, 42, 56, 70, 84, and 98 of the experiment. The pulsed injection scheme was used for the purpose of achieving high cumulative doses, prolonging the period of exposure of the animals to the drug, and mimicking the way DXR is usually administered in clinical practice. In view of the toxicity observed after single injection (Example XI), DXR was administered at a maximum 10 mg/kg dosage so that the occurrence of acute toxicity would be reduced or nil. In order to avoid the overlapping myelosuppression of successive treatment, 14 days were allowed between successive injections, based on previous observations that full regeneration of the activity of myeloid centers in the spleen after treatment with 10 mg/kg of DXR occurred between 7-12 days after drug administration.
(§3) During the course of the experiment, mice were inspected daily and survival curves were recorded. Whenever possible, dead mice were autopsied and a limited sample of organs sent for histopathological examination. Blood counts and body weights were checked weekly. The blood counts were done in a Coulter analyzer with a 20 μl sample obtained from the retro-orbital blood sinuses. One-third of the mice of each group were sacrificed on day 42, after 3 injections. A second third was sacrificed on day 84, after 6 injections. The remaining mice were sacrificed on day 180, 82 days after the 8the and last injection. Before sacrifice, the mice were bled under light ether anesthesia to obtain serum for the biochemical tests. The animals were then dissected and the removed organs, after weighing, were fixed in Bouin's solution and processed for light microscopy examination with hematoxylin-eosin-phosphomolybdic acid: light green stain.
(§4) (c) Effects on Body and Organ Weights. […] The weight measurements were made 42, 84, and 180 days after initial drug injection. The body and organ weights are expressed in percent relative to untreated mice. The percent survivors at each of the three time points is indicated at the top in the table; the dashes (-) indicate no survivors.

Sabra mice [4] = experiment: as above; type: in vivo
Method: as §1, §2, §3, §4

[5] = blood biochemistry after repeated administration; type: in vivo, mice; conditions: mouse, in vivo, iv, female, read-out: % Surviving (Table IX)
Method: as §2, §3
(§5) d) Effects on Blood Biochemistry Values. Blood levels of glucose, cholesterol, triglycerides, urea, uric acid, creatine, and total protein were measured at 42, 84, and 180 day time points. Blood enzyme levels of alkaline phosphatase, aspartate aminotransferase, and alanine aminotransferase were also assayed at these time points.
(§6) The most important differences in blood chemistry between F-DXR and L-DXR administration occurred in blood glucose, cholesterol, and triglyceride levels. These differences are seen in Table III below, which gives data on female mice receiving 10 mg/kg of either F-DXR or L-DXR. Glucose, cholesterol, and triglyceride levels are expressed as percent control (untreated) animals, and "nm" means "not measured".

Sabra mice [6] = experiment: blood biochemistry after repeated administration; type: in vivo
Method: as §2, §3, §5, §6

human cancer patients = conditions: cited from earlier work
[7] = liposome form, animals; cited from earlier work
[8] = tested on: myeloid centers in the spleen; conditions: 10 mg/kg of DXR; cited from earlier work
[9] = cited from earlier work

With COc1cccc2c1C(=O)c1c(O)c3c(c(O)c1C2=O)C[C@@](O)(C(=O)CO)C[C@@H]3O[C@H]1C[C@H](N)[C@H](O)[C@H](C)O1 [DXR, doxorubicin] the “chemical modification with ferric iron” value [1] was “relatively rapid and irreversible chemical modification”, the mortality at 2160 h ([2]; 10 mg/kg i.v.) was 20% and the mortality at 2160 h ([2]; 15 mg/kg i.v.) was 100%. It also gave a mortality at 2160 h ([2]; 20 mg/kg i.v.) of 100%, a mortality at 2160 h ([2]; 25 mg/kg i.v.) of 100% and a survival at 1008 h ([3]; female) of 93%. For the same compound, the survival at 2016 h ([3]; female, day 84, 10 mg/kg) was 27%, the survival at 1008 h ([3]; male) was 87% and the lower limb weakness (Sabra mice [4]; 10 mg/kg) was “marked weakness of the lower limbs”. The “organ weights (liver, spleen, kidneys, heart)” value (Sabra mice [4]; 10 mg/kg) was “substantial weight reduction”, the “mortality rates, all groups” value (Sabra mice [4]; 5, 7.5 and 10 mg/kg) was “Significant mortality rates” and the white cell count (Sabra mice [4]; 7 and 14 days after each injection) was “no significant differences between the F-DXR and the L-DXR treated groups”. For the same compound, the “findings in animals dying” value (Sabra mice [4]; 7.5 and 5 mg/kg) was “pleural and peritoneal effusions, cardiomegaly, and lung congestion”, the “Body weight, percent relative to untreated mice” value (Sabra mice [4]; female, day 42, 10 mg/kg) was 95% and the “Heart weight, percent relative to untreated mice” value (Sabra mice [4]; female, day 42, 10 mg/kg) was 97%. The “Kidneys weight, percent relative to untreated mice” value (Sabra mice [4]; female, day 42, 10 mg/kg) was 78%, the “Liver weight, percent relative to untreated mice” value (Sabra mice [4]; female, day 42, 10 mg/kg) was 107% and the “Spleen weight, percent relative to untreated mice” value (Sabra mice [4]; female, day 42, 10 mg/kg) was 78%. The “Body weight, percent relative to untreated mice” value (Sabra mice [4]; female, day 84, 10 mg/kg) was 84%, the “Heart weight, percent relative to untreated mice” value (Sabra mice [4]; female, day 84, 10 mg/kg) was 74% and the “Kidneys weight, percent relative to untreated mice” value (Sabra mice [4]; female, day 84, 10 mg/kg) was 91%. The “Liver weight, percent relative to untreated mice” value (Sabra mice [4]; female, day 84, 10 mg/kg) was 91%, the “Spleen weight, percent relative to untreated mice” value (Sabra mice [4]; female, day 84, 10 mg/kg) was 67% and the “sex difference in toxicity” value (Sabra mice [4]; high and intermediate dosages) was “slight trend towards higher toxicity in male as compared to female mice”. For the same compound, the “Body weight, percent relative to untreated mice” value (Sabra mice [4]; male, day 42, 10 mg/kg) was 75%, the “Heart weight, percent relative to untreated mice” value (Sabra mice [4]; male, day 42, 10 mg/kg) was 82% and the “Kidneys weight, percent relative to untreated mice” value (Sabra mice [4]; male, day 42, 10 mg/kg) was 76%. The “Liver weight, percent relative to untreated mice” value (Sabra mice [4]; male, day 42, 10 mg/kg) was 75%, the “Spleen weight, percent relative to untreated mice” value (Sabra mice [4]; male, day 42, 10 mg/kg) was 71% and the survival at 1008 h ([5]; day 42, 10 mg/kg) was 93%. The survival at 2016 h ([5]; day 84, 10 mg/kg) was 27%, the “blood cholesterol” value (Sabra mice [6]; 10 mg/kg) was “hypercholesterolemia” and the “blood glucose” value (Sabra mice [6]; 10 mg/kg) was “decreased blood glucose”. For the same compound, the “blood triglyceride” value (Sabra mice [6]; 10 mg/kg) was “hyperglyceridemia”, the creatine levels (Sabra mice [6]; 7.5 and 5 mg/kg, 180 days) was “increased creatine levels” and the alanine aminotransferase (Sabra mice [6]; 180 days) was “a drop in alanine aminotransferase”. The “Cholesterol, percent control (untreated)” value (Sabra mice [6]; female, day 42, 10 mg/kg) was 300 percent control, the “Glucose, percent control (untreated)” value (Sabra mice [6]; female, day 42, 10 mg/kg) was 97 percent control and the “Cholesterol, percent control (untreated)” value (Sabra mice [6]; female, day 84, 10 mg/kg) was 383 percent control. For the same compound, the “Glucose, percent control (untreated)” value (Sabra mice [6]; female, day 84, 10 mg/kg) was 57 percent control, the “Triglyceride, percent control (untreated)” value (Sabra mice [6]; female, day 84, 10 mg/kg) was 416 percent control and the “liver enzymes (alkaline phosphatase and aminotransferases)” value (Sabra mice [6]; mouse, in vivo) was “Increased liver enzymes”. For the same compound, the previous treatment outcome (human cancer patients; patient 5, hepatoma) was “Previous failure”, the previous treatment outcome (human cancer patients; patient 8, hepatoma) was “failure” and the “toxicity as judged by reduced mortality” value [7] was “significantly less toxic, as judged by reduced mortality”. For the same compound, the “full regeneration of myeloid centers in the spleen” value [8] was 7 to 12 days, the “cardiac toxicity on repeated administration” value ([9]; repeated administration) was “cumulative and irreversible cardiac damage” and the acute toxicity ([9]; soluble form) was “malaise, nausea, vomiting myelosuppression, and severe alopecia”.
